The source made the active and inactive calls.
Experiments:
[1] = target: T1, Carboxy-terminal domain RNA polymerase II polypeptide A small phosphatase 1 (Homo sapiens, UniProt Q9GZU7); assay: CTDSP1 inhibitors, concentration-response, biochemical, absorbance readout, ultra-high-throughput screen actives (AID 540297); format: functional
T1 sequence (Q9GZU7 whole entry): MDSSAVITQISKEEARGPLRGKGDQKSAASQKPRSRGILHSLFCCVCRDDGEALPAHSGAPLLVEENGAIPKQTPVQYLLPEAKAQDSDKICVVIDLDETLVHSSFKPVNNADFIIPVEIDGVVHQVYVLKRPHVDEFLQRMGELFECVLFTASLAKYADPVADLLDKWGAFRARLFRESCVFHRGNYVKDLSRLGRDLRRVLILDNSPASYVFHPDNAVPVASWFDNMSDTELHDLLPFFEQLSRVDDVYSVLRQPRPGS

[2] = Luminescence Cell-Based Dose Confirmation HTS to Identify Activators of 5'UTR Stem-Loop Driven Alpha-Synuclein mRNA Translation in H4 Neuroglioblastoma Cells. [Related pubchem assays: 1829 (Project Summary), 1814 (Primary HTS)]; format: functional
[3] = Luminescence Cell-Based Dose Response HTS to Identify Activators of Luciferase Translation or Activity in H4 […] Cells. [Related pubchem assays: 1829 (Project Summary), 1814 (Primary HTS)]; format: functional
H4 = assay: Luminescence Cell-Based Dose Response HTS to Identify Activators of 5'UTR Stem-Loop Driven Prion Protein mRNA Translation in H4 Neuroglioblastoma Cells. [Related pubchem assays: 1829 (Project Summary), 1814 (Primary HTS)]; format: functional; conditions: Homo sapiens
[4] = microbe, parasite or virus in culture; format: functional; conditions: Mycobacterium tuberculosis
[5] = P. falciparum Dd2 growth inhibitors, dose response, SYBR Green, cherry-picked samples (AID 1159567); format: functional, cell-based
[6] = reduction of Shn3 3'UTR-driven luciferase in osteoblasts – cell-based, Clone20 osteoblasts, firefly luciferase, cherry-picked, dose response (AID 624132); format: functional;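 further: firefly luciferase luminescence from reporter carrying the Shn3 3'UTR in osteoblasts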
[7] = target: T2, Corticotropin-releasing factor receptor 2/Corticotropin-releasing factor-binding protein (Homo sapiens, UniProt P24387+Q13324); assay: Dose Response confirmation of uHTS hits for small molecule antagonists of the CRF-binding protein and CRF-R2 receptor complex.; format: functional; conditions: read-out: IC50_Mean
T2 sequence (Q13324 whole entry): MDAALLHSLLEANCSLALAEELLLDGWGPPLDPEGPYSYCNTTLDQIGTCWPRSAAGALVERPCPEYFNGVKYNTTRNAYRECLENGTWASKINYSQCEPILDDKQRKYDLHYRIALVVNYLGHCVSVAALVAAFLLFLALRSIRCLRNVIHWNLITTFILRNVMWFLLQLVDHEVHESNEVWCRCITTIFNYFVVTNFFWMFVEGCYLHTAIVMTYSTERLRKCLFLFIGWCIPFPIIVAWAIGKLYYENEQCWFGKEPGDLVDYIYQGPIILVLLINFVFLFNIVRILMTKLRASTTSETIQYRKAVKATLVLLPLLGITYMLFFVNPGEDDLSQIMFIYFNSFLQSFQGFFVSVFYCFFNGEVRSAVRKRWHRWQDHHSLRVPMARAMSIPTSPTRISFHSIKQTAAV
T2 sequence (P24387 whole entry): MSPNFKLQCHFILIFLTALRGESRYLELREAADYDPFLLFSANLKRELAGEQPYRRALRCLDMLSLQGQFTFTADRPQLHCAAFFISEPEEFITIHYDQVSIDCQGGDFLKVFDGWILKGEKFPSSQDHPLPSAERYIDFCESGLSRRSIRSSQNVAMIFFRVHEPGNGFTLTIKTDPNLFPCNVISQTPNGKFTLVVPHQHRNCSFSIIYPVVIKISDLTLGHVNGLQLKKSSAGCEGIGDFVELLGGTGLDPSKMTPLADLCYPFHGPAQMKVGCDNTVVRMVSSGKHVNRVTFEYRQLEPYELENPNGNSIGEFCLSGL

[8] = target: T2, Corticotropin-releasing factor receptor 2/Corticotropin-releasing factor-binding protein; assay: activators of CRF receptor 2 with binding protein – uHTS hits, confirmation (AID 602473); format: functional; conditions: read-out: EC50_Mean
[9] = NIH-3T3 fibroblast cytotoxicity, dose response, cytotoxicity control, cell-based, fluorescence, Alamar Blue, secondary assay (AID 2327); format: functional;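 further: NIH-3T3 mouse fibroblasts cultured with fluconazole at 8 µg/mL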
[10] = fluconazole-exposed Candida albicans growth modulators – fluorescence, retest, confirmation (AID 2467); format: functional, cell-based
[11] = viability of PTEN-deleted HCT116 cells – cell-based, HCT116 PTEN knockout, dose response (AID 1047); format: functional;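 further: HCT116 colon tumor cells with PTEN knocked out; cells exposed to compound for 60 hours before readout; potency for loss of cell viability measured by luminescence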
[12] = viability of HCT116 lacking mutant beta-catenin – cell-based, human colon tumor, dose response (AID 1045); format: functional;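 further: HCT116 colon tumor cells with beta catenin knocked out; cells exposed to compound for 60 hours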
[13] = blockers of HIV-1 envelope-mediated cell-cell fusion – cherry-pick, dose response (AID 652057); format: functional, cell-based
[14] = blockers of HIV-1 ZM109 envelope-driven cell-cell fusion – HeLa effector, CEM target cells, luciferase, cherry-pick, dose response (AID 652058); format: functional, cell-based;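 further: luciferase signal from HIV-1 Env mediated cell-cell fusion of effector and target cells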
[15] = off-target signal loss in HeLa-CEM21 co-culture – HeLa F-luc CTL cells, cherry-picked, counter-screen for HIV-1 Env fusion inhibitor project, dose response (AID 652040); format: functional, cell-based;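 further: potency for signal decrease marking cytotoxic or nonspecific inhibition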
[16] = HIV-1 AD8 envelope cell-cell fusion blockers – cherry-pick, dose response (AID 652062); format: functional, cell-based;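 further: luciferase signal from cell-cell fusion driven by HIV-1 clade B AD8 Env; potency is for inhibitors of fusion seen as a drop in luminescence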

Cc1cccc(C(=O)NC2CCN(C(=O)NCc3ccccc3)CC2)c1
IC50 [1]: 12.1 µM (active)

Cc1ccc(Cn2ncn(-c3ccccc3)c2=O)cc1
EC50 [2]: 14.4 µM (active)
EC50 [3]: 24.1 µM (active)
EC50 (H4): 7.14 µM (active)

CCOC(=O)N1CCC(N2Cc3cccc(C(=O)Nc4ccc(N(CC)CC)cc4C)c3C2=O)CC1
CC50 [4]: > 40 µM (active)

CC(=O)OCC1=C(C(=O)OC(C)(C)C)N2C(=O)[C@@H](NC(=O)Cc3ccccc3)[C@H]2SC1
IC50 [1]: 8.61 µM (active)

CCCN(C)C[C@@H]1Oc2cc(C#Cc3ccncc3)ccc2S(=O)(=O)N([C@H](C)CO)C[C@@H]1C
AC50 [5]: 6.76 µM (active)

NS(=O)(=O)c1ccc(CNC(=S)NC(=O)c2ccco2)cc1
AC50 [6]: 22.9 µM (active)

Cc1ccn2c(=O)nc(SCC(=O)NCc3ccc4c(c3)OCO4)nc2c1
IC50 [1]: 10.5 µM (active)

Sc1nnc(-c2ccc(Cl)cc2Cl)n1-c1ccccc1
EC50 [2]: 15.5 µM (active)
EC50 [3]: 56.4 µM (active)
EC50 (H4): 14.9 µM (active)

O=C1C(CSCc2ccccc2)NC(=S)N1c1ccccc1 (stereo not drawn)
EC50 [2]: > 120 µM (not active)
EC50 [3]: > 120 µM (not active)
EC50 (H4): > 120 µM (not active)

CN1C(c2ccc(F)cc2)=CS/C1=C(/C#N)c1nnc(N2CCOCC2)n1-c1ccccc1
EC50 [2]: > 120 µM (not active)
EC50 [3]: > 120 µM (not active)
EC50 (H4): > 120 µM (not active)
IC50 [7]: > 47.1 µM (inactive)
EC50 [8]: > 53 µM (inactive)

S=C(Nc1ccc(Cl)cc1)NC1CC2CCC(C1)N2Cc1ccccc1 (stereo not drawn)
CC50 [4]: > 40 µM (active)

C=CCn1c(=N)n(CC(=O)c2cccc([N+](=O)[O-])c2)c2ccccc21
EC50 [9]: 134 µM (active)
EC50 [10]: > 38 µM (not active)

Cc1ccc(Nc2nnc(C3C(=O)N(C)C4(C)CC3c3cc(Br)ccc3O4)s2)cc1 (stereo not drawn)
EC50 [9]: 19.8 µM (active)
EC50 [10]: 4.45 µM (active)

CC(=O)Nc1ccccc1N(CC(O)Cn1c2ccccc2c2ccccc21)S(=O)(=O)c1ccc(C)cc1 (stereo not drawn)
EC50 [11]: 13.5 µM (active)
EC50 [12]: 17.1 µM (active)

CCOC(=O)C1(C)Oc2ccccc2C(C(=O)OC)=C1C(=O)OC (stereo not drawn)
IC50 [1]: 23.6 µM (active)

CCCCC(=O)OCC(=O)N1N=C(c2c[nH]c3ccccc23)C(O)C1c1ccc(OC)cc1 (stereo not drawn)
CC50 [4]: > 40 µM (active)

O=C(CCCOc1ccc(Cl)cc1Cl)Nc1cc(S(=O)(=O)N2CCOCC2)ccc1N1CCOCC1
AC50 [13]: 3.23 µM (active)
AC50 [14]: 11.8 µM (active)
AC50 [15]: 6.33 µM (active)
AC50 [16]: 15.8 µM (active)
